Assay results taken from patent US4024277A, “Phosphoro-aminosulfenyl derivatives of benzofuran carbamates” (priority 1975, dated 1977).

Legend:
plum curculio [1] = test: Initial insecticidal activity, plum curculio; assay type: in vivo, Conotrachelus nenuphar (Herbst); settings: Conotrachelus nenuphar, 48-hour exposure, read-out: % Kill, Plum Curculio
Excerpt: (§1) a. Initial Insecticidal Activity
(§2) In this test, a candidate insecticide, in solution, is applied to either infested or uninfested plants or containers by spraying or dipping. (The preferred test procedure varies with insect species. The dipping method is better than the spraying method, and vice versa, for certain species of insects. Also some species are better adapted to the test by infesting after the chemical treatment rather than before.) Once the tests have been established, a 48-hour exposure period is observed before reading the tests. Insect species included in these tests are Mexican bean beetle (Epilachna varivestis Mulsant), pea aphid [Acyrthosiphon pisum (Harris)], southern armyworm [Spodoptera eridania (Cramer)], twospotted spider mite (Tetranychus urticae Koch), large milkweed bug [Oncopeltus fasciatus (Dallas)], plum curculio [Conotrachelus nenuphar (Herbst)], confused flour beetle (Tribolium confusum Jacquelin duVal) and granary weevil [Sitophilus granarius (Linnaeus)]. Test results are set forth in Table I. A control sample, comprising the solution without the candidate insecticide, is also included.

confused flour beetle [2] = test: Initial insecticidal activity, confused flour beetle; assay type: in vivo, Tribolium confusum Jacquelin duVal; settings: Tribolium confusum, 48-hour exposure, read-out: % Kill, Confused Flour Beetle
Excerpt: as §1, §2

Mexican bean beetle [3] = test: Initial insecticidal activity, Mexican bean beetle; assay type: in vivo, Epilachna varivestis Mulsant; settings: Epilachna varivestis, 48-hour exposure, read-out: % Kill, Mexican Bean Beetle
Excerpt: as §1, §2

pea aphid [4] = test: Initial insecticidal activity, pea aphid; assay type: in vivo, Acyrthosiphon pisum (Harris); settings: Acyrthosiphon pisum, 48-hour exposure, read-out: % Kill, Pea Aphid
Excerpt: as §1, §2

southern armyworm [5] = test: Initial insecticidal activity, southern armyworm; assay type: in vivo, Spodoptera eridania (Cramer); settings: Spodoptera eridania, 48-hour exposure, read-out: % Kill, Southern Armyworm
Excerpt: as §1, §2

large milkweed bug = test: Seven-day residual insecticidal activity, milkweed bug; assay type: in vivo, Oncopeltus fasciatus (Dallas); settings: Oncopeltus fasciatus, 48-hour exposure, read-out: % Kill, Milkweed Bug
Excerpt: (§3) b. Seven-Day Residual Insecticidal Activity
(§4) In this test, a candidate insecticide, in solution, is applied to uninfested plants or containers by dipping or spraying. A seven-day holding period is necessary before infestation. A 48-hour exposure period is observed before evaluation of the tests. The insect species used in this type of test are the same as those listed under initial activity.

plum curculio [6] = test: Seven-day residual insecticidal activity, plum curculio; assay type: in vivo, Conotrachelus nenuphar (Herbst); settings: Conotrachelus nenuphar, 48-hour exposure, read-out: % Kill, Plum Curculio
Excerpt: as §3, §4

confused flour beetle [7] = test: Seven-day residual insecticidal activity, confused flour beetle; assay type: in vivo, Tribolium confusum Jacquelin duVal; settings: Tribolium confusum, 48-hour exposure, read-out: % Kill, Confused Flour Beetle
Excerpt: as §3, §4

Mexican bean beetle [8] = test: Seven-day residual insecticidal activity, Mexican bean beetle; assay type: in vivo, Epilachna varivestis Mulsant; settings: Epilachna varivestis, 48-hour exposure, read-out: % Kill, Mexican Bean Beetle
Excerpt: as §3, §4

pea aphid [9] = test: Seven-day residual insecticidal activity, pea aphid; assay type: in vivo, Acyrthosiphon pisum (Harris); settings: Acyrthosiphon pisum, 48-hour exposure, read-out: % Kill, Pea Aphid
Excerpt: as §3, §4

southern armyworm [10] = test: Seven-day residual insecticidal activity, southern armyworm; assay type: in vivo, Spodoptera eridania (Cramer); settings: Spodoptera eridania, 48-hour exposure, read-out: % Kill, Southern Armyworm
Excerpt: as §3, §4

twospotted spider mite [11] = test: Seven-day residual insecticidal activity, twospotted spider mite; assay type: in vivo, Tetranychus urticae Koch; settings: Tetranychus urticae, 48-hour exposure, read-out: % Kill, Twospotted Spider Mite
Excerpt: as §3, §4

Mexican bean beetle [12] = test: Systemic insecticidal activity (soil/water), Mexican bean beetle; assay type: in vivo, Epilachna varivestis Mulsant; settings: Epilachna varivestis, 48-hour exposure, read-out: % Kill, Mexican Bean Beetle
Method: (§5) c. Systemic Insecticidal Acitivity (Soil/Water)
(§6) In this test, a candidate insecticide, in solution, is added to the soil of either uninfested pinto bean seedlings (Phaseolus vulgaris) or uninfested broad bean seedlings (Vicia faba var. Windsor). The plant species used depend on the insect species in the test. Usually, a 72-hour translocation period before infestation is required, followed by a 48-hour exposure period, before evaluation of the tests. The insect species used in the systemic tests are Mexican bean beetle, southern armyworm, pea aphid, and twospotted spider mite.

twospotted spider mite [13] = test: Systemic insecticidal activity (soil/water), twospotted spider mite; assay type: in vivo, Tetranychus urticae Koch; settings: Tetranychus urticae, 48-hour exposure, read-out: % Kill, Twospotted Spider Mite
Method: as §5, §6

house flies = test: Level I immersion test, house flies; assay type: in vivo, Musca domestica Linnaeus; settings: HF, 5 mg/milliliter; for % Knockdown: 10 minutes after immersion; for mortality at 5000 µg/mL: Musca domestica, after 18-24 hours, read-out: % Kill
Method: (§7) e. Insecticidal Activity Against House Flies and German Cockroaches
Compounds of this invention were tested in a Level I test at 5 mg. of active compounds/milliliter of a solution of 40% acetone -- 60% water.
In this test a group of ten house flies (Musca domestica Linnaeus) were completely immersed in 25 ml. of the insecticidal test solution. After 10 seconds of immersion, the test solution is removed. The house flies are then transferred to holding cages lines with paper toweling. In the case of the house flies, the knockdown counts were recorded 10 minutes after termination of the immersion. The percent kill was recorded after 18-24 hours.

[14] = tested on: female house flies (resistant); test: Level II topical test, house flies; assay type: in vivo, Musca domestica Linnaeus; settings: HF (female, resistant), one microgram topically per insect; for % Knockdown: 10 minutes; for mortality at 0.001 mg: Musca domestica, topical, read-out: % Kill
Method: as §7
(§8) In a Level II test the compounds of this invention were tested for insecticidal activity against female house flies (resistant) and male German cockroaches. Ten insects were anesthetized with carbon dioxide and placed in a container for about 2 hours, during which time the insects recovered to normal activity. The container confining the insects is fitted with a plunger which is used to force the insects against a nylon mesh at one end of the container. One microliter of an acetone solution containing one microgram of the candidate insecticide was applied topically to each insect. The plunger was withdrawn and the insects were allowed to move freely about the container. Knockdown counts were recorded 10 minutes after treatment of house flies and 30 minutes after treatment of cockroaches.

German cockroaches = test: Level II topical test, German cockroaches; assay type: in vivo, Blattella germanica (Linnaeus); settings: GC (male), one microgram topically per insect; for mortality at 0.001 mg: Blattella germanica, topical, read-out: % Kill; for % Knockdown: 30 minutes
Method: as §7, §8

CCN(SN(C)C(=O)Oc1cccc2c1OC(C)(C)C2)P(=O)(OC)OC [5(c), 2,3-dihydro-2,2-dimethyl-7-benzofuranyl [(N-dimethoxyphosphinyl) (N-ethyl)aminosulfenyl][methyl]carbamate]
mortality at 39 ppm (plum curculio [1]): 50%
mortality at 156 ppm (plum curculio [1]): 85%
mortality at 1250 ppm (plum curculio [1]): 100%
mortality at 39 ppm (confused flour beetle [2]): 0%
mortality at 156 ppm (confused flour beetle [2]): 0%
mortality at 1250 ppm (confused flour beetle [2]): 78%
mortality at 39 ppm (Mexican bean beetle [3]): 78%
mortality at 156 ppm (Mexican bean beetle [3]): 100%
mortality at 1250 ppm (Mexican bean beetle [3]): 100%
mortality at 39 ppm (pea aphid [4]): 0%
mortality at 156 ppm (pea aphid [4]): 100%
mortality at 1250 ppm (pea aphid [4]): 100%
mortality at 39 ppm (southern armyworm [5]): 0%
mortality at 156 ppm (southern armyworm [5]): 69%
mortality at 1250 ppm (southern armyworm [5]): 100%
mortality at 39 ppm (large milkweed bug): 0%
mortality at 156 ppm (large milkweed bug): 100%
mortality at 1250 ppm (large milkweed bug): 100%
mortality at 39 ppm (plum curculio [6]): 0%
mortality at 156 ppm (plum curculio [6]): 0%
mortality at 1250 ppm (plum curculio [6]): 80%
mortality at 39 ppm (confused flour beetle [7]): 0%
mortality at 156 ppm (confused flour beetle [7]): 0%
mortality at 1250 ppm (confused flour beetle [7]): 0%
mortality at 39 ppm (Mexican bean beetle [8]): 6%
mortality at 156 ppm (Mexican bean beetle [8]): 70%
mortality at 1250 ppm (Mexican bean beetle [8]): 100%
mortality at 39 ppm (pea aphid [9]): 0%
mortality at 156 ppm (pea aphid [9]): 0%
mortality at 1250 ppm (pea aphid [9]): 62%
mortality at 39 ppm (southern armyworm [10]): 0%
mortality at 156 ppm (southern armyworm [10]): 0%
mortality at 1250 ppm (southern armyworm [10]): 61%
mortality at 39 ppm (twospotted spider mite [11]): 2%
mortality at 156 ppm (twospotted spider mite [11]): 0%
mortality at 1250 ppm (twospotted spider mite [11]): 2%
mortality at 39 ppm (Mexican bean beetle [12]): 100%
mortality at 156 ppm (Mexican bean beetle [12]): 100%
mortality at 39 ppm (twospotted spider mite [13]): 7%
mortality at 156 ppm (twospotted spider mite [13]): 24%
% Knockdown (house flies): 100%
mortality at 5000 µg/mL (house flies): 100%
% Knockdown [14]: 0%
mortality at 0.001 mg [14]: 38%
mortality at 0.001 mg (German cockroaches): 0%
% Knockdown (German cockroaches): 0%

CCCOP(=O)(OCCC)N(C)SN(C)C(=O)Oc1cccc2c1OC(C)(C)C2 [2(d), 2,3-dihydro-2,2-dimethyl-7-benzofuranyl [(N-di-n-propoxyphosphinyl) (N-methyl)aminosulfenyl][methyl]carbamate]
mortality at 39 ppm (plum curculio [1]): 0%
mortality at 156 ppm (plum curculio [1]): 20%
mortality at 1250 ppm (plum curculio [1]): 100%
mortality at 39 ppm (confused flour beetle [2]): 0%
mortality at 156 ppm (confused flour beetle [2]): 2%
mortality at 1250 ppm (confused flour beetle [2]): 72%
mortality at 39 ppm (Mexican bean beetle [3]): 100%
mortality at 156 ppm (Mexican bean beetle [3]): 100%
mortality at 1250 ppm (Mexican bean beetle [3]): 100%
mortality at 39 ppm (pea aphid [4]): 86%
mortality at 156 ppm (pea aphid [4]): 100%
mortality at 1250 ppm (pea aphid [4]): 100%
mortality at 39 ppm (southern armyworm [5]): 0%
mortality at 156 ppm (southern armyworm [5]): 54%
mortality at 1250 ppm (southern armyworm [5]): 100%
mortality at 39 ppm (large milkweed bug): 56%
mortality at 156 ppm (large milkweed bug): 100%
mortality at 1250 ppm (large milkweed bug): 100%
mortality at 39 ppm (plum curculio [6]): 0%
mortality at 156 ppm (plum curculio [6]): 5%
mortality at 1250 ppm (plum curculio [6]): 86%
mortality at 39 ppm (confused flour beetle [7]): 0%
mortality at 156 ppm (confused flour beetle [7]): 2%
mortality at 1250 ppm (confused flour beetle [7]): 38%
mortality at 39 ppm (Mexican bean beetle [8]): 50%
mortality at 156 ppm (Mexican bean beetle [8]): 76%
mortality at 1250 ppm (Mexican bean beetle [8]): 100%
mortality at 39 ppm (pea aphid [9]): 0%
mortality at 156 ppm (pea aphid [9]): 0%
mortality at 1250 ppm (pea aphid [9]): 56%
mortality at 39 ppm (southern armyworm [10]): 0%
mortality at 156 ppm (southern armyworm [10]): 0%
mortality at 1250 ppm (southern armyworm [10]): 60%
mortality at 39 ppm (twospotted spider mite [11]): 0%
mortality at 156 ppm (twospotted spider mite [11]): 0%
mortality at 1250 ppm (twospotted spider mite [11]): 1%
mortality at 10 ppm (Mexican bean beetle [12]): 20%
mortality at 39 ppm (Mexican bean beetle [12]): 85%
mortality at 156 ppm (Mexican bean beetle [12]): 100%
mortality at 10 ppm (twospotted spider mite [13]): 0%
mortality at 39 ppm (twospotted spider mite [13]): 2%
mortality at 156 ppm (twospotted spider mite [13]): 18%
% Knockdown (house flies): 100%
mortality at 5000 µg/mL (house flies): 100%
% Knockdown [14]: 0%
mortality at 0.001 mg [14]: 40%
mortality at 0.001 mg (German cockroaches): 10%
% Knockdown (German cockroaches): 0%

CCCOP(=O)(OCCC)N(CCC)SN(C)C(=O)Oc1cccc2c1OC(C)(C)C2 [3(c)]
mortality at 39 ppm (plum curculio [1]): 5%
mortality at 156 ppm (plum curculio [1]): 5%
mortality at 1250 ppm (plum curculio [1]): 77%
mortality at 39 ppm (confused flour beetle [2]): 0%
mortality at 156 ppm (confused flour beetle [2]): 2%
mortality at 1250 ppm (confused flour beetle [2]): 55%
mortality at 39 ppm (Mexican bean beetle [3]): 100%
mortality at 156 ppm (Mexican bean beetle [3]): 100%
mortality at 1250 ppm (Mexican bean beetle [3]): 100%
mortality at 39 ppm (pea aphid [4]): 31%
mortality at 156 ppm (pea aphid [4]): 100%
mortality at 1250 ppm (pea aphid [4]): 100%
mortality at 39 ppm (southern armyworm [5]): 0%
mortality at 156 ppm (southern armyworm [5]): 22%
mortality at 1250 ppm (southern armyworm [5]): 100%
mortality at 39 ppm (large milkweed bug): 5%
mortality at 156 ppm (large milkweed bug): 90%
mortality at 1250 ppm (large milkweed bug): 100%
mortality at 39 ppm (plum curculio [6]): 5%
mortality at 156 ppm (plum curculio [6]): 10%
mortality at 1250 ppm (plum curculio [6]): 95%
mortality at 39 ppm (confused flour beetle [7]): 0%
mortality at 156 ppm (confused flour beetle [7]): 0%
mortality at 1250 ppm (confused flour beetle [7]): 78%
mortality at 39 ppm (Mexican bean beetle [8]): 28%
mortality at 156 ppm (Mexican bean beetle [8]): 92%
mortality at 1250 ppm (Mexican bean beetle [8]): 100%
mortality at 39 ppm (pea aphid [9]): 0%
mortality at 156 ppm (pea aphid [9]): 0%
mortality at 1250 ppm (pea aphid [9]): 73%
mortality at 39 ppm (southern armyworm [10]): 0%
mortality at 156 ppm (southern armyworm [10]): 0%
mortality at 1250 ppm (southern armyworm [10]): 0%
mortality at 39 ppm (twospotted spider mite [11]): < 1%
mortality at 156 ppm (twospotted spider mite [11]): 0%
mortality at 1250 ppm (twospotted spider mite [11]): 5%
mortality at 10 ppm (Mexican bean beetle [12]): 44%
mortality at 39 ppm (Mexican bean beetle [12]): 44%
mortality at 156 ppm (Mexican bean beetle [12]): 94%
mortality at 10 ppm (twospotted spider mite [13]): < 1%
mortality at 39 ppm (twospotted spider mite [13]): < 1%
mortality at 156 ppm (twospotted spider mite [13]): 5%
% Knockdown (house flies): 100%
mortality at 5000 µg/mL (house flies): 100%
% Knockdown [14]: 0%
mortality at 0.001 mg [14]: 40%
mortality at 0.001 mg (German cockroaches): 0%
% Knockdown (German cockroaches): 0%
